Experimental data published in patent US4963565A, “In vivo treatment of mycobacterial infections with 6-cyclo octylamino-5,8-quinoline quinone” (priority 1986, dated 1990).

Assays:
M. intracellulare = assay: In vivo chemotherapeutic activity against M. intracellulare in the Beige mouse model (Example II); parameters: species or system M. intracellulare (host: Beige mice); conditions: 10 mg/kg daily orally; 1, 2 and 4 weeks (P 0.05), FIG. 2
lymphocytes = assay: Effect on chromosomal structures in lymphocytes; format: cell-based, human; conditions: 0.5 ml of 10 mcg/ml solution
Protocol: In order to determine the effect of CQQ on chromosomes, blood was collected from a healthy volunteer, and lymphocytes were isolated from the sample. These were cultivated in a folate deficient medium, and after approximately 24 hours of cultivation, 0.5 ml of a solution of CQQ (10 mcg/ml) was added to the culture. Incubation at 37° C. for 72 hours followed. The lymphocytes were then harvested, following routine laboratory porocedures and were stained with Giemsa stain.

macrophages = assay: Cytotoxicity to macrophages (Table 3 footnote); format: cell-based, human; conditions: Sample I; 200 NG/ML (cell printed *)
Text: Blood from a healthy volunteer was drawn and monocytes were removed and cultured to the macrophage stage. This required about 7 days. The macrophages were then exposed to M. leprae bacilli obtained from biopsy specimens of leprosy patients. One sample was exposed to CQQ, while other samples were exposed to DDS (diaminodiphenyl sulphone), the standard antileprosy drug, or rifampin, at various concentrations. Macrophages were exposed to radiolabelled tritium (^3 H) labeled thymidine, and its uptake was measured using a liquid scintillation counter. A control model of M. leprae exposed macrophages, which was not treated was used as well. The uptake of thymidine is a measure of antimycobacterial activity.

M. tuberculosis = conditions: Gangadharam et al.; cited from earlier work
M. tuberculosis H37 Rv = assay: In vivo activity against M. tuberculosis infections in C57Bl/6 mice (Example VII); parameters: species or system M. tuberculosis (host: C57Bl/6 mice)
Protocol: Animal studies were performed using the mouse model. Mice are accepted as excellent experimental models for human mycobacterial diseases. While earlier literature (see review by Youmans etc.), have established C57Bl/6 mice models for in vivo studies with M. tuberculosis, mouse models for experimental M. intracellulare infections were difficult until recently (see review by Gangadharam). The Beige mouse (C57Bl/6/bg/bg) model established by Gangadharam et al is now used for studies with M. intracellulare. In the in vivo studies described below, C57Bl/6 and Beige mice models are used for M. tuberculosis and M. intracellulare infections, respectively.
In chemotherapy studies, various concentrations of CQQ and ansamycin (LM 427), were used. Lung and spleen tissue samples from the animal models were used. "CFU" refers to the "colony forming units" observed when culturing these samples.
In all of the following experiments, spleens and lungs were removed aseptically from the subject animals, at different periods of challenge. The organs were ground and samples of the ground organs were plated in aliquots on 7H11 agar medium. If the bacteria were present, they would grow, forming CFUs. The plates were incubated at 37° C. (with 5% CO2 for M. tuberculosis), and read after three weeks incubation.
CFUs were counted by visual enumeration. If increased magnification was necessary, this was done using a plate microscope.
In this experiment C57Bl/6 mice were infected intravenously with M. tuberculosis H37 Rv strain and one group was treated daily orally with 10 mg/kg of CQQ and the others as untreated infected control.

O=C1C(NC2CCCCCCC2)=CC(=O)c2ncccc21 [CQQ, 6-cyclo octylamino-5,8-quinoline quinone]
Antimycobacterial activity, CFU counts from spleen and lungs vs controls (M. intracellulare): considerable antimycobactgerial activity with statistically significant differences | Assessment of chromosomal breaks (lymphocytes; 72 hours): fully within the normal limits | Total number of chromosomal breaks (lymphocytes; 72 hours at 37° C., at least 50 cells counted): 7 | Cells with chromosomal breaks (lymphocytes; 72 hours at 37° C., of at least 50 cells counted): 5 | Cytotoxic to macrophages (macrophages): CYTOTOXIC TO MACROPHAGES | In vitro effectiveness against M. tuberculosis (M. tuberculosis): effective against M. intracellulare and M. tuberculosis in vitro | Mean CFU counts from spleens and lungs vs untreated controls (M. tuberculosis H37 Rv; 10 mg/kg daily orally, end of 4 weeks): considerable reduction | Mean colony forming unit (CFU) count, lung (M. tuberculosis H37 Rv; 10 mg/kg daily orally, end of 4 weeks, control 6.42): 4.21 LOG CFU | Mean colony forming unit (CFU) count, spleen (M. tuberculosis H37 Rv; 10 mg/kg daily orally, end of 4 weeks, control 6.90): 4.90 LOG CFU | Antituberculosis effectiveness (M. tuberculosis H37 Rv; conclusion from Table 2): clearly an effective antituberculosis agent
